Consider 37 molecules from US20190309272A1, “Genetically Modified Cell Lines Including a TP53 Modification and Methods of Use” (UNIVERSITY OF SOUTH CAROLINA, priority 2018, published 2019).

What all share (assay type): cell-based, Human
Settings in all cases: ten-day drug treatment, 156.25 nM to 10 μM, resazurin fluorescence

Test [1] relates to MCF7 WT Parental pool. The experiment in a line: Drug screening, resazurin, MCF7 wild type parental pool.
Test [2] relates to MCF7 TP53 KO 3.4 pool. The experiment in a line: Drug screening, resazurin, TP53 KO 3.4 pool.
Test [3] concerns MCF7 TP53 KO 5.6 pool. Put plainly: Drug screening, resazurin, TP53 KO 5.6 pool.

Structures can show the parent of a compound that is named as a salt. Starred links: 1 amine or outer side, 2 acyl side, 3 side chain; linkers in the order of their positions; H or OH if unused. Positions of bridges follow the written chain, without caps; N, C: chain ends. Non-standard residues stand in square brackets, D forms with d. Residues, ends and D or L forms follow the SMILES beside them. Chains are numbered I, II in the order given. Actinocin(9to1) = Cc1c2oc3c(C)ccc(C(=O)[*:1])c3nc-2c(C(=O)[*:2])c(N)c1=O; NMeV = CN[C@H](C(=O)O)C(C)C; Sar = CNCC(=O)O

As for `C1CN1c1nc(N2CC2)nc(N2CC2)n1` [Triethyleneme1amine], the “MCF7 WT Parental pool (AUC)” value in test [1] amounted to 2.223. For the same molecule, the “TP53 KO 3.4 pool (AUC)” value in test [2] came out at 2.224. Moreover, in test [3], the “TP53 KO 5.6 pool (AUC)” value was found to be 2.319.
On the same counts, the results for `CC(=O)O[C@]1(C(C)=O)CC[C@H]2[C@@H]3C=C(C)C4=CC(=O)CC[C@]4(C)[C@H]3CC[C@@]21C` [Megestrol Acetate] are 9.824, 9.221 and 9.555.
On the same counts, the results for Bleomycin Sulfate are 3.922, 4.694 and 3.421.
The corresponding values for `CC(C)Cn1cnc2c(N)nc3ccccc3c21` [Imiquimod] are 9.496, 9.359 and 9.449.
On to `C[C@]12CC[C@@H]3c4ccc(O)cc4C[C@@H](CCCCCCCCC[S+]([O-])CCCC(F)(F)C(F)(F)F)[C@H]3[C@@H]1CC[C@@H]2O` (stereo partly drawn) [Fulvestrant], for which, in test [1], the “MCF7 WT Parental pool (AUC)” value came out at 4.6. Besides, the “TP53 KO 3.4 pool (AUC)” value in test [2] is on record as 3.797. The “TP53 KO 5.6 pool (AUC)” value in test [3] was determined as 4.145.
The corresponding values for `Cc1cc(Nc2ncc(Cl)c(Nc3ccccc3S(=O)(=O)C(C)C)n2)c(OC(C)C)cc1C1CCNCC1` [Ceritinib] are 1.637, 1.482 and 1.421.
`COC(=O)C[C@](O)(CCCC(C)(C)O)C(=O)O[C@@H]1C(OC)=C[C@]23CCCN2CCc2cc4c(cc2[C@H]13)OCO4` [Omacetaxine Mepesuccinate]: in test [1], the “MCF7 WT Parental pool (AUC)” value came out at 0.7749. For the same molecule, in test [2], the “TP53 KO 3.4 pool (AUC)” value stood at 0.7692. The “TP53 KO 5.6 pool (AUC)” value in test [3] came out at 0.7717.
Take `C[C@]12CC[C@H](O)CC1=CC[C@@H]1[C@@H]2CC[C@]2(C)C(c3cccnc3)=CC[C@@H]12` [Abiraterone]: the “MCF7 WT Parental pool (AUC)” value in test [1] stood at 8.378. Besides, the “TP53 KO 3.4 pool (AUC)” value in test [2] is on record as 8.785. The “TP53 KO 5.6 pool (AUC)” value in test [3] amounted to 9.254.
On the same counts, the results for `CC/C(=C(\c1ccccc1)c1ccc(OCCN(C)C)cc1)c1ccccc1` [TamoxifenCitrate] are 7.863, 5.949 and 7.798.
For the molecule `O=C1CCC(N2C(=O)c3ccccc3C2=O)C(=O)N1` (stereo not drawn) [Thalidomide], the “MCF7 WT Parental pool (AUC)” value in test [1] was determined as 7.13. Besides, the “TP53 KO 3.4 pool (AUC)” value in test [2] is 9.18. Besides, the “TP53 KO 5.6 pool (AUC)” value in test [3] is 10.21.
The corresponding values for `CC1=C(/C=C/C(C)=C/C=C/C(C)=C/C(=O)O)C(C)(C)CCC1` [Tretinoin] are 7.394, 7.809 and 7.997.
The corresponding values for `CC(C)C[C@H](NC(=O)CNC(=O)c1cc(Cl)ccc1Cl)B(O)O` [Ixazomib] are 0.719, 0.7086 and 0.8766.
The corresponding values for `COc1cc(Nc2c(C#N)cnc3cc(OCCCN4CCN(C)CC4)c(OC)cc23)c(Cl)cc1Cl` [Bosutinib] are 8.686, 9.254 and 9.588.
Consider `O=P(O)(O)C(O)(Cn1ccnc1)P(=O)(O)O` [Zoledronic Acid], for which, in test [1], the “MCF7 WT Parental pool (AUC)” value worked out at 9.222. The “TP53 KO 3.4 pool (AUC)” value in test [2] stood at 9.268. The “TP53 KO 5.6 pool (AUC)” value in test [3] was 9.417.
The corresponding values for `N.N.O=C([O-])C1(C(=O)[O-])CCC1.[Pt+2]` [Carboplatin] are 8.83, 9.302 and 8.343.
On the same counts, the results for `CCc1cc2c(cc1N1CCC(N3CCOCC3)CC1)C(C)(C)c1[nH]c3cc(C#N)ccc3c1C2=O` [Alectinib] are 5.763, 4.51 and 2.7.
The corresponding values for `CC(=O)O[C@H]1C(=O)[C@@]2(C)[C@H]([C@H](OC(=O)c3ccccc3)[C@]3(O)C[C@H](OC(=O)[C@H](O)[C@@H](NC(=O)c4ccccc4)c4ccccc4)C(C)=C1C3(C)C)[C@]1(OC(C)=O)CO[C@@H]1C[C@@H]2O` [Paclitaxel] are 1.453, 1.453 and 1.432.
Take `C/C(=C\c1csc(C)n1)[C@@H]1C[C@@H]2O[C@]2(C)CCC[C@H](C)[C@H](O)[C@@H](C)C(=O)C(C)(C)[C@@H](O)CC(=O)N1` [Ixabepilone]: the “MCF7 WT Parental pool (AUC)” value in test [1] came to 1.397. For the same molecule, the “TP53 KO 3.4 pool (AUC)” value in test [2] worked out at 1.543. Also, the “TP53 KO 5.6 pool (AUC)” value in test [3] is reported as 1.473.
On the same counts, the results for `CC[C@]1(O)C[C@H]2CN(CCc3c([nH]c4ccccc34)[C@@](C(=O)OC)(c3cc4c(cc3OC)N(C=O)[C@H]3[C@@](O)(C(=O)OC)[C@H](OC(C)=O)[C@]5(CC)C=CCN6CC[C@]43[C@@H]65)C2)C1` [Vincristine Sulfate] are 1.668, 1.776 and 1.54.
The corresponding values for `CS(=O)(=O)CCNCc1ccc(-c2ccc3ncnc(Nc4ccc(OCc5cccc(F)c5)c(Cl)c4)c3c2)o1` [Laptinib] are 5.364, 5.619 and 5.857.
The corresponding values for `CC(C)C[C@H](NC(=O)[C@H](CCc1ccccc1)NC(=O)CN1CCOCC1)C(=O)N[C@@H](Cc1ccccc1)C(=O)N[C@@H](CC(C)C)C(=O)[C@@]1(C)CO1` [Carfilzomib] are 0.6359, 0.6462 and 0.6678.
Consider `O=NN(CCCl)C(=O)NCCCl` [Carmustine], for which, in test [1], the “MCF7 WT Parental pool (AUC)” value is 9.622. In test [2], the “TP53 KO 3.4 pool (AUC)” value is 9.826. Also, the “TP53 KO 5.6 pool (AUC)” value in test [3] stood at 9.965.
Consider `O=c1[nH]c(=O)n([C@H]2C[C@H](O)[C@@H](CO)O2)cc1F` [Floxuridine], for which the “MCF7 WT Parental pool (AUC)” value in test [1] is 2.391. Moreover, the “TP53 KO 3.4 pool (AUC)” value in test [2] was found to be 1.85. Further, in test [3], the “TP53 KO 5.6 pool (AUC)” value came out at 1.997.
On the same counts, the results for `CCCCCOC(=O)Nc1nc(=O)n([C@@H]2O[C@H](C)[C@@H](O)[C@H]2O)cc1F` [Capecitabine] are 9.004, 9.208 and 9.284.
The corresponding values for `Clc1ccc(C(c2ccccc2Cl)C(Cl)Cl)cc1` (stereo not drawn) [Mitotane] are 5.932, 11.01 and 10.17.
The corresponding values for `CN1CCN(C(=O)c2ccc3cc(CCNc4ncnc5ccc(C#N)cc45)ccc3c2)CC1` [SenexinB] are 5.203, 6.869 and 6.954.
Regarding `O=C(CCBr)N1CCN(C(=O)CCBr)CC1` [Pipobroman], the “MCF7 WT Parental pool (AUC)” value in test [1] is recorded as 8.767. Further, the “TP53 KO 3.4 pool (AUC)” value in test [2] worked out at 8.997. In addition, the “TP53 KO 5.6 pool (AUC)” value in test [3] worked out at 7.66.
On to `CC1=C2C[C@H]3[C@@H](CC=C4C[C@@H](O)CC[C@@]43C)[C@@H]2CC[C@]12O[C@@H]1C[C@H](C)CN[C@H]1[C@H]2C` [Clyclopamine], for which the “MCF7 WT Parental pool (AUC)” value in test [1] was 9.488. The “TP53 KO 3.4 pool (AUC)” value in test [2] is reported as 9.033. Besides, the “TP53 KO 5.6 pool (AUC)” value in test [3] amounted to 9.093.
In the case of `O=C(/C=C/c1cccc(S(=O)(=O)Nc2ccccc2)c1)NO` [Belinostat], in test [1], the “MCF7 WT Parental pool (AUC)” value turned out to be 1.423. Also, the “TP53 KO 3.4 pool (AUC)” value in test [2] was 1.525. Also, the “TP53 KO 5.6 pool (AUC)” value in test [3] was 1.322.
On the same counts, the results for `Nc1nc(Cl)nc2c1ncn2[C@H]1C[C@H](O)[C@@H](CO)O1` [Cladribine] are 5.569, 3.767 and 3.956.
On the same counts, the results for `O=C(c1ccc(F)c(F)c1Nc1ccc(I)cc1F)N1CC(O)([C@@H]2CCCCN2)C1` [Cobimetinib] are 7.621, 4.851 and 8.041.
The corresponding values for `Cc1c2oc3c(C)ccc(C(=O)N[C@@H]4C(=O)N[C@H](C(C)C)C(=O)N5CCC[C@H]5C(=O)N(C)CC(=O)N(C)[C@@H](C(C)C)C(=O)O[C@@H]4C)c3nc-2c(C(=O)N[C@@H]2C(=O)N[C@H](C(C)C)C(=O)N3CCC[C@H]3C(=O)N(C)CC(=O)N(C)[C@@H](C(C)C)C(=O)O[C@@H]2C)c(N)c1=O` [Dactinomycin] (I: T[dV]P[Sar][NMeV] / II: T[dV]P[Sar][NMeV]; ester I:1-I:C, II:1-II:C; linker I:N-II:N via Actinocin(9to1)) are 2.01, 1.588 and 1.65.
`CN(C)c1nc(N(C)C)nc(N(C)C)n1` [Altretamine]: the “MCF7 WT Parental pool (AUC)” value in test [1] came out at 8.059. Further, the “TP53 KO 3.4 pool (AUC)” value in test [2] stood at 8.874. Further, the “TP53 KO 5.6 pool (AUC)” value in test [3] is listed as 8.473.
On the same counts, the results for `CNC(=O)c1ccccc1Sc1ccc2c(/C=C/c3ccccn3)n[nH]c2c1` [Axitinib] are 2.581, 3.743 and 3.786.
`C=CC(=O)Nc1cc(Nc2nccc(-c3cn(C)c4ccccc34)n2)c(OC)cc1N(C)CCN(C)C` [Osimertinib]: the “MCF7 WT Parental pool (AUC)” value in test [1] was 4.149. For the same molecule, the “TP53 KO 3.4 pool (AUC)” value in test [2] is 4.056. For the same molecule, in test [3], the “TP53 KO 5.6 pool (AUC)” value came to 4.044.
The corresponding values for `NCCCNCCSP(=O)(O)O` [Amifostine] are 8.456, 9.108 and 9.73.
Take `O=C(c1ccc(OCCN2CCCCC2)cc1)c1c(-c2ccc(O)cc2)sc2cc(O)ccc12` [Raloxifene]: the “MCF7 WT Parental pool (AUC)” value in test [1] is listed as 5.361. The “TP53 KO 3.4 pool (AUC)” value in test [2] is 6.017. The “TP53 KO 5.6 pool (AUC)” value in test [3] was 6.562.
